According to patent US20250002524A1, “CAP ANALOGS HAVING AN ACYCLIC LINKER TO THE GUANINE DERIVATIVE NUCLEOBASE” (CureVac SE, priority 2021, published 2025):
Where two headings read alike, the source gives them in different places.

Biological target: T1, T7 RNA polymerase (Escherichia phage T7, UniProt P00573)
T1 construct: purchased Thermo Fisher Scientific
Type: biochemical
Excerpt: A DNA sequence was introduced into a modified pUC19 derived vector backbone to comprise a 5′-UTR with a ribozyme cleavage site (the HSD17B4 5′ UTR), a 3′-UTR, a histone-stem-loop structure and a stretch of adenine nucleotides (A100), at the 3′-terminal end. The obtained plasmid DNA was transformed and propagated in bacteria using common protocols and plasmid DNA was extracted, purified, and enzymatically linearized using a restriction enzyme. The obtained linearized plasmid DNA was used for RNA in vitro transcription as outlined next to obtain the mRNA with the sequence shown in SEQ ID NO: 1.
Linearized plasmid DNA template (50 μg/ml) was transcribed at 37° C. for 3-5 hours in 80 mM HEPES/KOH, pH 7.5, 24 mM MgCl2, 2 mM spermidine, 40 mM DTT, 5 U/ml pyrophosphatase (Thermo Fisher Scientific), 200 U/ml RiboLock RNase inhibitor (Thermo Fisher Scientific), 5000 U/ml T7 RNA polymerase (Thermo Fisher Scientific).
The non-modified and modified nucleotide mixture was sequence-optimized (herein referred to as sequence-optimized IVT-mix) preferably in accordance with a procedure as described in WO2015/188933. Example 1. In short, the sequence-optimized IVT-mix comprised the four ribonucleoside triphosphates (NTPs) GTP, ATP, CTP and (modified) UTP in a sequence optimized ratio, wherein the fraction of each of the four ribonucleoside triphosphates in the sequence-optimized IVT-mix corresponded to the fraction of the respective nucleotide in the mRNA molecule to be synthetized, a buffer, a DNA template, and an RNA polymerase. Accordingly, for mRNAs i) and ii) as set out above, the concentrations of the nucleotides were 0.42 mM ATP, 0.57 mM CTP, 0.28 mM UTP, and 0.5 mM GTP (all Thermo Fisher Scientific).
Following RNA in vitro transcription, linear DNA templates were removed by Pulmozyme (Ratiopharm) (2500 U/ml, 3.2 mM CaCl2, 30 min at 37° C.). The obtained mRNAs i) and ii) as well as the mRNAs used in example 3, Table Ex-6; example 4, Table Ex-7; and example 5, FIG. 5 were purified using RP-HPLC (PureMessenger®; according to WO2008/077592). The obtained mRNAs used in example 3, Table Ex-8; example 4, Table Ex-9; and example 5, FIG. 6, were purified using Monarch RNA cleanup kit or Qiagen RNeasy mini kit according to the protocol of the manufacturer and used for dsRNA determination, capping analysis and in vitro expression experiments (example 5).
The capping efficacy can be analyzed by an HPLC assay of a 5′ fragment of mRNAs obtained according to the protocol of example 2. Thus, the peaks obtained in such an HPLC assay are indicative of i) correctly capped mRNA, ii) capped mRNA lacking a single nucleotide G (which is a typical side product if T7 RNA-polymerase is used), iii) uncapped mRNA and iv) further products of unknown structure. 5′ fragments for this kind of analysis are typically 15 to 20 nucleotides in length.
In order to provide fragments of a length of 18 nucleotides (assuming that the Cap-nucleotide is present, the fragment is 18 nucleotides long; for uncapped mRNAs, the fragment is accordingly 17 nucleotides long) for HPLC analysis, the mRNAs i) and ii) obtained in example 2 were first cleaved at the above-mentioned 5′ ribozyme cleavage site using a ribozyme designed to cleave at the relevant position. The ribozyme reaction contained 150 μM of the respective mRNA, 150 μM of the ribozyme, 50 mM NaCl and 0.625 mM EDTA in a total reaction volume of 120 μL. For the annealing reaction, the mixture was incubated in a PCR cycler for 3 min at 95° C., followed by a cool down ramp of 0.1° C. per second to a final temperature of 25° C., with a final incubation of 10 min at 25° C. After addition of 30 μL of a 200 mM MgCl2 solution buffered with 250 mM TRIS/HCl (pH 7.5), the reaction mix was incubated at 25° C. for 1 h. The reaction was stopped by addition of 24 μL of a 250 mM EDTA solution. RNA-only and Ribozyme-only controls were prepared per RNA and ribozyme, respectively.

[1] = Table Ex-8, mRNA capped with 15.23 mM cap0 analog, N1-Methyl-pseudouridine, purified with Monarch RNA cleanup kit or Qiagen RNeasy mini kit
[2] = Table Ex-6, mRNA capped with named cap analog (2.0 mM cap, 0.5 mM GTP), RP-HPLC purified mRNA

T1 sequence (P00573 whole entry): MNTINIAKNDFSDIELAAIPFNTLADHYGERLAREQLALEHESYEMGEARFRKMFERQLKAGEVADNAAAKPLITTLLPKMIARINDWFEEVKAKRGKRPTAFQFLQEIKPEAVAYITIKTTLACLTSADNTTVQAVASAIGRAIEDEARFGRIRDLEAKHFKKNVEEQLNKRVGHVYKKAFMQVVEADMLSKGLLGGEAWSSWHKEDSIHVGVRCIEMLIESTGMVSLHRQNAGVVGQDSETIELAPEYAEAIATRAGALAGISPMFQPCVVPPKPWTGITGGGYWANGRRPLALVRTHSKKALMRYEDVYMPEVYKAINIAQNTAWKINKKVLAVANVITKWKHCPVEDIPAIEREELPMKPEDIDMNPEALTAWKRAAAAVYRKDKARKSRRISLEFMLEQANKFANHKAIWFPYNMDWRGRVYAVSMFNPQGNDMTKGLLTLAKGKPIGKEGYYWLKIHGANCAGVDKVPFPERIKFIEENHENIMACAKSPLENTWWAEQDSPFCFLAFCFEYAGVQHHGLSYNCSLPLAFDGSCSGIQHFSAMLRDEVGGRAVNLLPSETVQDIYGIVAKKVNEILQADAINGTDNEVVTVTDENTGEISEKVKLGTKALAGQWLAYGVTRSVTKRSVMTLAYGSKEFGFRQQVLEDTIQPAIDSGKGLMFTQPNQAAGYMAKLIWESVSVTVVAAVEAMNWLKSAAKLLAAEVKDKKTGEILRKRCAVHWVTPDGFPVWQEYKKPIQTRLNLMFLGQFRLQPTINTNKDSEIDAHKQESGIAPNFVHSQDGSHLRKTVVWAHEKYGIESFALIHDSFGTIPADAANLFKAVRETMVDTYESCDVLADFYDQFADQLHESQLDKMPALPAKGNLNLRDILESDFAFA

SMILES: C[n+]1cn(C[S+]([O-])CCCP(=O)(O)OP(=O)([O-])OP(=O)(O)OC[C@H]2O[C@@H](n3cnc4c(=O)[nH]c(N)nc43)[C@H](O)[C@@H]2O)c2nc(N)[nH]c(=O)c21 (stereo partly drawn) [Phosphonate Variant 2]
- Relative peak area Capped RNA minus G [1]: 6.3%
- Relative peak area Correctly capped RNA [1]: 76.9%
- Relative peak area Uncapped RNA [1]: 15.0%
- Relative peak area Unidentified peaks [1]: 1.8%

SMILES: C[n+]1cn(CC[S+]([O-])CCP(=O)(O)OP(=O)([O-])OP(=O)(O)OC[C@H]2O[C@@H](n3cnc4c(=O)[nH]c(N)nc43)[C@H](O)[C@@H]2O)c2nc(N)[nH]c(=O)c21 (stereo partly drawn) [Phosphonate Variant 5]
- Relative peak area Capped RNA minus G [1]: 4.3%
- Relative peak area Correctly capped RNA [1]: 77.1%
- Relative peak area Uncapped RNA [1]: 13.1%
- Relative peak area Unidentified peaks [1]: 5.5%

SMILES: C[n+]1cn(CCS(=O)(=O)CCP(=O)(O)OP(=O)([O-])OP(=O)(O)OC[C@H]2O[C@@H](n3cnc4c(=O)[nH]c(N)nc43)[C@H](O)[C@@H]2O)c2nc(N)[nH]c(=O)c21 [Phosphonate Variant 6]
- Relative peak area Capped RNA minus G [1]: 4.2%
- Relative peak area Correctly capped RNA [1]: 75.5%
- Relative peak area Uncapped RNA [1]: 14.9%
- Relative peak area Unidentified peaks [1]: 5.4%

SMILES: C[n+]1cn(CCCS(=O)(=O)CCP(=O)(O)OP(=O)([O-])OP(=O)(O)OC[C@H]2O[C@@H](n3cnc4c(=O)[nH]c(N)nc43)[C@H](O)[C@@H]2O)c2nc(N)[nH]c(=O)c21 [Phosphonate Variant 9]
- Relative peak area Capped RNA minus G [1]: 4.4%
- Relative peak area Correctly capped RNA [1]: 73.4%
- Relative peak area Uncapped RNA [1]: 15.7%
- Relative peak area Unidentified peaks [1]: 6.5%

SMILES: C[n+]1cn(CCSCP(=O)(O)OP(=O)([O-])OP(=O)(O)OC[C@H]2O[C@@H](n3cnc4c(=O)[nH]c(N)nc43)[C@H](O)[C@@H]2O)c2nc(N)[nH]c(=O)c21 [Phosphonate Variant 10]
- Relative peak area Capped RNA minus G [1]: 23.4%
- Relative peak area Correctly capped RNA [1]: 63.0%
- Relative peak area Uncapped RNA [1]: 8.7%
- Relative peak area Unidentified peaks [1]: 4.9%

SMILES: C[n+]1cn(CCS(=O)(=O)CP(=O)(O)OP(=O)([O-])OP(=O)(O)OC[C@H]2O[C@@H](n3cnc4c(=O)[nH]c(N)nc43)[C@H](O)[C@@H]2O)c2nc(N)[nH]c(=O)c21 [Phosphonate Variant 12]
- Relative peak area Capped RNA minus G [1]: 8.6%
- Relative peak area Correctly capped RNA [1]: 75.5%
- Relative peak area Uncapped RNA [1]: 12.2%
- Relative peak area Unidentified peaks [1]: 3.7%

SMILES: C[n+]1cn(CCCOP(=O)(O)OP(=O)([O-])OP(=O)(O)OC[C@H]2O[C@@H](n3cnc4c(=O)[nH]c(N)nc43)[C@H](O)[C@@H]2O)c2nc(N)[nH]c(=O)c21 [Propylene Cap]
- Relative peak area Capped RNA minus G [1]: 21.6%
- Relative peak area Correctly capped RNA [1]: 64.7%
- Relative peak area Uncapped RNA [1]: 12.3%
- Relative peak area Unidentified peaks [1]: 1.4%

SMILES: C[n+]1cn(C2OC(COP(=O)(O)OP(=O)([O-])OP(=O)(O)OCC3OC(n4cnc5c(=O)[nH]c(N)nc54)C(O)C3O)C(O)C2O)c2nc(N)[nH]c(=O)c21 (stereo not drawn) [mCap, m7G(5′)ppp(5′)G, reference compound]
- Relative peak area Capped RNA minus G [2]: 8.6%
- Relative peak area Uncapped RNA [2]: 19.8%
- Relative peak area Unidentified peaks [2]: 10.1%
- Relative peak area Correctly capped RNA (Table Ex-6, mRNA capped with named cap analog (2.0 mM cap, 0.5 mM GTP), RP-HPLC purified mRNA, 5′ fragment, UV 260 nm): 61.5%
- Relative peak area Capped RNA minus G [1]: 12.2%
- Relative peak area Correctly capped RNA [1]: 63.3%
- Relative peak area Uncapped RNA [1]: 20.3%
- Relative peak area Unidentified peaks [1]: 4.2%
